The record followed here is a melting point compilation (Tetko et al.; mined from patent text by program, amines drawn as free bases though some values may be those of a salt).

Each structure is given as a SMILES string. A value given as a limit tells only on which side of the number the result lay.

As usually defined, the melting point is the temperature, or range, at which the solid turns liquid. In turn, `O=C(O)Cc1ccc(OCCNC(=O)C2Cc3ccccc3N2S(=O)(=O)c2ccc(-c3ccc(F)cc3)cc2)cc1` (stereo not drawn) showed a melting point of 81 °C.

The compound `N#Cc1cnc2cc(Cl)c([N+](=O)[O-])cc2c1Nc1ccc(F)c(Cl)c1` displayed a melting point of 259 to 263 °C.

`Cc1cc(S(F)(F)(F)(F)F)ccc1C(=O)O` registered a melting point of 138 to 139 °C.

The compound `O=Cc1cc(OCCl)c(O)cc1[N+](=O)[O-]` yielded a melting point of 160 to 161 °C.

As to `CC(C)NC(Nc1cc(C(F)(F)F)cc(C(F)(F)F)c1)=C(C#N)S(=O)(=O)c1ccc(Cl)cc1`, the melting point was 197 to 198 °C.

For `CC(C)c1cccc(C(C)C)c1NC(=O)NCC1(O)CCc2ccccc21` (stereo not drawn), the melting point was in the range of 173 to 174 °C.

Turning to `COc1ccc(COc2cccc(-c3cnc4[nH]cc(C(=O)C(C)(C)C)c4n3)c2)cc1`, the melting point is greater than 300 °C.

In turn, `O=C1c2ccccc2OCN1CCCl` came in with a melting point of 45 °C.

`Nc1cccc(NC(=O)NC2N=C(c3ccccc3F)c3ccccc3N(CC(=O)N3CC4CCC(CC4)C3)C2=O)c1` (racemic) yielded a melting point greater than 250 °C.

`O=C1CCCN1CCCNCc1ccc(-c2cc3ncnc(Nc4ccc5[nH]ccc5c4)c3s2)cc1`: the melting point lay in the range of 139 to 146 °C.

`COC(=O)c1cc(S(C)(=O)=O)c(Br)cc1C` came in with a melting point of 150 °C.

On to `COc1ccc(CCOc2cc(-c3cccc(C(=O)O)c3)ccn2)cc1OC`, for which the melting point was 148 to 149 °C.

For the compound `O=C(O)CN(CCN(CC(=O)O)C(Cc1ccccc1)C(=O)O)CCN(CC(=O)O)C(Cc1ccccc1)C(=O)O` (stereo not drawn), the melting point was 111 to 115 °C.

Compound `Nc1cc(-n2cc(C(=O)O)c(=O)c3cc(F)c(Cl)nc32)ccc1F` had a melting point greater than 270 °C.

Compound `CS(=O)(=O)Nn1c(=O)[nH]c2cc(C(F)(F)F)c(C3CCCO3)cc2c1=O` (stereo not drawn) registered a melting point of 254 to 257 °C.

With `CCc1ccc(C=Nc2ccc(C#N)cc2)cc1`, the melting point lay within 76.2 to 77 °C.

In turn, `N#CCCC(C#N)CSc1ccc2ccccc2c1` (stereo not drawn) yielded a melting point of 52 to 55 °C.

For the compound `Cc1cnc(CCCCCNc2ncc(Cc3ccc(C)nc3)c(=O)[nH]2)c(N)c1`, the melting point lay within 161 to 163 °C.

Compound `CCC[C@H]1CN(c2c(F)cc3c(=O)c(C(=O)O)cn([C@@H]4C[C@@H]4F)c3c2OC)C[C@H]1N` came in with a melting point of 79 to 83 °C.

Consider `Sc1nc2ncccc2[nH]1`, for which the melting point is greater than 250 °C.

In turn, `BrCc1ccccc1Oc1ccc(Br)cc1` showed a melting point of 56 to 58 °C.

In turn, `CN1CC(CCN2CCN(c3ccc(Br)cc3)CC2)OC1=O` (stereo not drawn) displayed a melting point of 125 to 127 °C.

`CCn1c(C)c(C(=O)c2ccc(C)c3ccccc23)c2ccccc21` came in with a melting point of 136 to 137 °C.

In turn, `N#CCCNc1ccc(CCCN2CCN(c3ccccc3)CC2)cc1` yielded a melting point of 141 to 143 °C.

For the compound `O=C(CC1CCCCC1)Nc1c(Cl)ccc2nc(CCCNCCCO)ccc12`, the melting point is 159 to 163 °C.

Regarding `CCN(CC)CCOCCc1ccc2c(c1)OCO2`, the melting point was 83 to 84 °C.

With `COc1c(C#N)ccc2c1Cc1ccccc1CS2`, the melting point is 117 to 118 °C.

As for `COc1cc(Nc2c(C#N)cnc3cc(-c4ccc(CO)cc4)sc23)c(Cl)cc1Cl`, the melting point lay in the range of 239 to 240 °C.

As to `CN(C)CCc1ccc(OCCCN2C(=O)c3ccccc3C2=O)cc1`, the melting point was 81 to 82 °C.

For the compound `O=C(O)Cc1ccc2cc(OCc3ccc4ccccc4n3)ccc2c1`, the melting point lay in the range of 199 to 202 °C.

In the case of `Cc1cc(C(CC2CCCC2)c2ccc(S(C)(=O)=O)cc2)[nH]c1C(=O)O` (stereo not drawn), the melting point turned out to be 127 °C.

As for `CC(C)n1nc(-c2c(-c3ccccc3)nn3ccc(C(=O)NCCOc4ccccc4)cc23)ccc1=O`, the melting point lay in the range of 156 to 157 °C.

`CC(=O)NS(=O)(=O)c1cncc([N+](=O)[O-])c1` showed a melting point of 176 to 178 °C.

On to `Cc1cc(C)cc(C(=O)NC(C(N)=O)n2cccn2)c1` (stereo not drawn), for which the melting point fell in the range of 193 to 195 °C.

`CCCn1c(=O)nc(NNC(C)=O)c2[nH]c(C3CCCC3)nc21`: the melting point was greater than 270 °C.

`CN1CCN(c2ccc(Nc3cc(-c4cccc(N5CCc6c(cc7n6CCCC7)C5=O)c4CO)cn(C)c3=O)nc2)CC1` returned a melting point of 180 to 181 °C.

As for `CN(C(=O)c1cc(C(F)(F)F)cc(C(F)(F)F)c1)C(CCCC(=O)O)Cc1c[nH]c2ccccc12` (stereo not drawn), the melting point is 152 to 157 °C.

Compound `O=C(O)CS(=O)(=O)Nc1ccc(F)cc1C(F)(F)F` displayed a melting point of 120 to 121 °C.

`c1csc(N2CCN(Cc3ccc4sccc4c3)CC2)n1` came in with a melting point of 80 to 82 °C.

The compound `CN(Cc1ccco1)c1nccc(Oc2ccc(NC(=O)c3cc(F)cc(N4CCCCC4)c3)c3ccccc23)n1` showed a melting point of 155 to 156 °C.

On to `CN(C)c1cc(Br)cc(S(=O)(=O)c2ccc([N+](=O)[O-])cc2)c1`, for which the melting point lay within 166 to 168 °C.

`CCOC(=O)c1cc(Cl)cc(NCS(=O)(=O)c2ccc(Cl)cc2)c1Cl` showed a melting point of 173 to 175 °C.

For `CCCN(c1ncccc1N)C1CCN(Cc2ccccc2)CC1`, the melting point fell in the range of 73 to 74 °C.

With `Cc1nc(CO)n(COCc2ccccc2)c1Sc1ccccc1`, the melting point fell in the range of 87 to 88 °C.

`CCOC(=O)[C@@H](Cc1ccc2ccc(C#N)cc2c1)c1ccc(O[C@H]2CCN(Cc3ccccc3)C2)cc1` displayed a melting point of 95 to 95.5 °C.

`CC(=O)Nc1ccccc1C(=O)Nc1ccc(N2CCN3CCC2CC3)cc1`: the melting point was determined as 191 °C.

Turning to `O=C(NCc1ccccc1)c1ccc(C=CC(=O)N2CCc3c([nH]c4ccccc34)C2c2ccc3c(c2)OCO3)cc1` (stereo not drawn), the melting point came to 203 °C.

Compound `CC1(C)Oc2cc3nonc3cc2C(N2CCC(O[N+](=O)[O-])CC2=O)C1O` (stereo not drawn) came in with a melting point of 186 to 189 °C.

Compound `Cc1ccccc1OCC(O)CN` (stereo not drawn) came in with a melting point of 64 °C.

`Fc1ccc(Cl)c2oc(CCC#Cc3ccccn3)nc12` displayed a melting point of 102 to 103 °C.

The compound `CC(=O)C(=NO)c1ccc(F)cc1F` gave a melting point of 126 to 129 °C.

For `COC1(OC)C2(Cl)C(Cl)=C(Cl)C1(Cl)C(O)C2O` (stereo not drawn), the melting point was in the range of 160 to 162 °C.

The compound `CCNC(=O)c1c(C2CC2)nc(CC)n1Cc1ccc2oc(-c3ccccc3NS(=O)(=O)C(F)(F)F)c(Br)c2c1` showed a melting point of 124 to 130 °C.

Regarding `COCN1CC(CN)c2c[nH]c3cccc(c23)C1=O` (stereo not drawn), the melting point lay within 160 to 163 °C.

Take `N#Cc1cc([N+](=O)[O-])c(O)c(O)c1F`: the melting point is 154 °C.

As to `CC(=O)C[C@@H](Cc1ccccc1)C(=O)O`, the melting point was 71 to 73 °C.

`COC(=O)C1(C)c2ccccc2Oc2ccccc21` yielded a melting point of 91 to 92 °C.

Consider `COc1ccc(S(=O)(=O)C2(C(=O)NO)CCN(Cc3ccc(Br)cc3)CC2)cc1`, for which the melting point is 180 °C.

Turning to `C#CCOc1ccc(Cc2nnc(Cl)c3ccccc23)cc1`, the melting point was in the range of 129 to 131 °C.

As to `Fc1cc(Cn2ccnc2)cc2c1Cc1c(-c3ccsc3)n[nH]c1-2`, the melting point lay in the range of 274 to 276 °C.

The compound `COCOc1ccc(CO)c2cccc(C)c12` gave a melting point of 91 to 93 °C.

In turn, `CCC(=O)N1CCC(NC(=O)N[C@@H]2C[C@H]2c2ccccc2)CC1` (relative stereo) registered a melting point of 155 to 158 °C.

Compound `Cc1ccc(C(=O)C=Cc2ccccc2)c(C)c1` had a melting point of 68 °C.

In the case of `CCn1ncc2c1ncc1c(Cl)nc3ncnn3c12`, the melting point lay in the range of 196 to 197 °C.

Consider `N=C(Nc1ccc(Cl)cc1)NC1CC2C3CC4C2C4C13` (stereo not drawn), for which the melting point lay within 170 to 171 °C.

`CS(=O)(=O)c1ccc(-c2oc(CO)nc2-c2ccc(F)cc2)cc1`: the melting point is 156 to 157 °C.

As to `Cc1nc(CCOc2ccc(CC3SC(=N)NC3=O)cc2)oc1-c1ccccc1` (stereo not drawn), the melting point lay within 194 to 195 °C.

Compound `CCN(CC)C(=O)n1nc(C(C)(C)C)cc1SC` registered a melting point of 55 to 56 °C.

On to `CC(C)(c1ccc(Oc2ccc(N=C=O)cc2)cc1)c1ccc(Oc2ccc(N=C=O)cc2)cc1`, for which the melting point lay in the range of 68 to 69 °C.

With `N=C(N)N(Cc1ccccc1)c1ccc2c3c(cccc13)CC2`, the melting point is 138 to 140 °C.

For the compound `C[C@H]1[C@H](NC(=O)OC(C)(C)C)C(=O)N1OCc1ccccc1`, the melting point was determined as 78 °C.

The compound `CCOc1ccc2c(c1)c(I)c1n2CCC1` had a melting point of 128 to 129 °C.

Compound `C#CC(C)(C)N1CCN(C(=O)C(C)(C)C)CC1` yielded a melting point of 106 to 109 °C.

In the case of `O=[N+]([O-])c1cc2ccccc2nc1Nc1ccc(O)cc1`, the melting point was 190 °C.

With `CC(C)(C)c1cc(-c2c[nH]c(=S)[nH]2)cc(C(C)(C)C)c1O`, the melting point lay within 168 to 170 °C.

With `O=c1oc2ccc(F)cc2c(CBr)c1Br`, the melting point lay in the range of 125 to 127 °C.

As to `CCn1c(=O)c2[nH]c(/C=C/c3ccccc3OC)nc2n(CC)c1=O`, the melting point is greater than 270 °C.

The compound `Cc1[nH]c(-c2ccccc2)c2nc(-c3ccccc3)[nH]c(=O)c12` came in with a melting point of 345 to 348 °C.

On to `CC(OC(=O)c1cc(-n2c(=O)cc(C(F)(F)F)n(C)c2=O)ccc1Cl)C1CC1` (stereo not drawn), for which the melting point was in the range of 118 to 119 °C.

On to `O=C(Nc1ccc(-n2nc(C3CC3)cc2C2CC2)cc1)c1ccncc1F`, for which the melting point is 135 to 139 °C.

With `O=C(Nc1ccccc1)O[C@@H]1CN=C(c2ccc(NC(=O)C(F)(F)F)cc2)O[C@H]1c1ccccc1` (racemic), the melting point worked out at 210 °C.

`O=C(CCc1ccccc1)Nc1ccc([N+](=O)[O-])cc1` gave a melting point of 117 to 119 °C.

`Cn1c(=O)[nH]c2nccnc2c1=O` returned a melting point of 342 to 343 °C.

In the case of `CCCc1c(OCCCCCOc2ccccc2CCCCC(=O)O)ccc2c1OCCC2=O`, the melting point lay within 75 to 76 °C.

Take `C=C1C(=C)C2C(CCC3(C)C2CCC3(O)C(C)=O)C2(C)CCC(=O)C=C12` (stereo not drawn): the melting point was 274 to 276 °C.

As for `CC(=O)Nc1ccc(OC2SCC(OC(C)=O)C(OC(C)=O)C2OC(C)=O)cn1` (stereo not drawn), the melting point is 132 to 133 °C.

`COc1nc(C)c(C)nc1NC(=O)N1CCN(c2ccc(C(C)=O)cc2)CC1`: the melting point was in the range of 166 to 168 °C.

The compound `CC(C)(O)c1ccc(CNC(=O)c2cccnc2Oc2cc(F)cc(F)c2)cc1` returned a melting point of 68 to 70 °C.
